Experimental data taken from PubChem BioAssay (NCI).
“And” between values parts separate entries of the source, which are not always exact repeats. Equal entries are not always repeated.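 All cell lines were grown in 96-well plates and treated with compound for 48 hours. GI50 = concentration required for 50% inhibition of growth. TGI: concentration producing complete growth inhibition.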

What was measured:
Experiment in all cases: NCI tumour cell line growth inhibition, 48 h
[1] = system: CCRF-CEM leukemia
[2] = system: EKVX NSCLC
[3] = system: K-562 leukemia
[4] = system: NCI-H23 lung
[5] = system: OVCAR-3 ovarian
[6] = system: SF-295 CNS
[7] = system: SF-539 CNS
[8] = system: SNB-19 CNS
[9] = system: SW-620 colon
[10] = system: U251 CNS

Row | SMILES | GI50 [1] [µM] | TGI [1] | GI50 [2] [µM] | TGI [2] | GI50 [3] [µM] | TGI [3] | GI50 [4] [µM] | TGI [4] | GI50 [5] [µM] | TGI [5] | GI50 [6] [µM] | TGI [6] | GI50 [7] [µM] | TGI [7] | GI50 [8] [µM] | TGI [8] | GI50 [9] [µM] | TGI [9] | GI50 [10] [µM] | TGI [10]
1 | FC(F)(F)c1cc(Nc2ccc3cc(OCCCN4CCOCC4)ccc3n2)ccc1Cl | 2.03 | 9.18 µM | 2.3 | 6.21 µM | 1.04 | 3.83 µM | 1.94 | 4.8 µM | 1.93 | 4.47 µM | 1.37 | 3.17 µM | 1.75 | 3.73 µM | 1.84 | 3.79 µM | 1.85 | 3.6 µM | 1.27 | 2.75 µM
2 | Cn1cnc([N+](=O)[O-])c1Sc1nccc(=O)[nH]1 |  | > 100 µM |  | > 100 µM |  | > 100 µM |  | > 100 µM |  | > 100 µM |  | > 100 µM |  | > 100 µM |  | > 100 µM |  | > 100 µM |  | > 100 µM
3 | COc1ccc(/C=C2\c3cc(OC)c(OC)c(OC)c3CC[C@@H]2O)cc1F | 0.815 | > 100 µM | 0.823 | > 100 µM | 0.0865 | > 100 µM | 0.318 | > 100 µM | 0.262 | > 100 µM | 0.222 | > 100 µM | 0.272 | 0.917 µM | 0.855 | > 100 µM | 0.246 | > 100 µM | 0.469 | 33.2 µM
4 | Cn1c2ccccc2c2c(=O)n(CCCC(=O)OC(=NC3CCCCC3)NC3CCCCC3)c3c(-c4ccccc4)nnn3c21 | > 100 | > 100 µM | > 100 | > 100 µM | > 100 | > 100 µM | > 100 | > 100 µM | > 100 | > 100 µM | 79 | > 100 µM | 38.4 | > 100 µM | > 100 | > 100 µM | > 100 | > 100 µM | > 100 | > 100 µM
5 | CC1(C)N=C(N)N=C(N)N1c1cccc(Br)c1 | 2.24 | > 100 µM | 17.4 | > 100 µM | 0.0597 | > 100 µM | 0.564 | > 100 µM | 6.56 | > 100 µM | 0.642 | > 38 µM | 0.393 | > 100 µM | 1.68 | > 100 µM | 0.216 | > 100 µM | 0.321 | > 100 µM
6 | CCOC1CC2OC(=O)C1C=C2C(=O)OC (stereo not given) |  | 56.6 µM |  | > 100 µM |  | 83.3 µM |  | 44.2 µM |  | 75.1 µM |  | > 100 µM |  | 68.4 µM |  | > 100 µM |  | 61.1 µM |  | > 100 µM
7 | CSc1ccc(C(=O)/C=C/c2ccccc2Cl)cc1 | 19.6 | > 100 µM | 19.7 | 37 µM | 18.8 | 58.3 µM | 15.4 | 32.5 µM | 8.98 | 21.9 µM | 16.1 | 33.1 µM | 16.5 | 33.1 µM | 26.5 | 61.2 µM | 4.95 | 28.7 µM | 4.75 | 17.2 µM
8 | C/C(=N/N=C(N)N)c1ccc(NC(=O)Nc2ccc(/C(C)=N/N=C(N)N)cc2)cc1 | 21.7 | 97.8 µM | 19.2 | 49 µM | 5.84 | > 59.9 µM | 13.9 | 48 µM | 18.6 | > 61.6 µM | 12.4 | 28.4 µM | 17.9 | 36.1 µM | 19.6 | 45 µM | 48.8 | > 100 µM | 7.94 | 24.3 µM
9 | Cc1nccc2c3ccc(OCc4cn(-c5ccc(Cl)cc5)nn4)cc3n(CC(C)C)c12 | 2.04 | > 33.3 µM | 2.14 | 32.6 µM | 0.992 | > 33.3 µM | 1.88 | 17.2 µM | 5.15 | > 33.3 µM | 1.25 | 7.64 µM | 2.82 | 10.9 µM | 4.5 | > 33.3 µM | 3.33 | > 33.3 µM | 2.62 | 13.3 µM
10 | O=C1C=CC2(C=C1)C[C@H](NC(=O)OCc1ccccc1)C(=O)O2 |  | 10 µM |  | 23.7 µM |  | > 32.5 µM |  | 32.5 µM |  | 30.4 µM |  | 49.5 µM |  | 44.5 µM |  | > 100 µM |  | 18.2 µM |  | 37.1 µM
11 | CCOC(=O)C(C(O)c1ccc([N+](=O)[O-])cc1)P(=O)(OCC)OCC (stereo not given) |  | > 100 µM |  | > 100 µM |  | > 100 µM |  | > 100 µM |  | > 100 µM |  | > 100 µM |  | > 100 µM |  | > 100 µM |  | > 100 µM |  | > 100 µM
12 | Nc1ncnc2c1ccn2[C@@H]1O[C@H]([C@H](O)c2ccc(Cl)c(F)c2)[C@@H](O)[C@H]1O | > 100 | > 100 µM | > 100 | > 100 µM | > 100 | > 100 µM | > 100 | > 100 µM | > 100 | > 100 µM | > 100 | > 100 µM | > 100 | > 100 µM | > 100 | > 100 µM | > 100 | > 100 µM | > 100 | > 100 µM
13 | C[CH2][Sn]([CH2]C)([O]C(=O)c1ccc(OC)c(OC)c1OC)[O]C(=O)c1ccc(OC)c(OC)c1OC | 13.9 | 56.8 µM | > 100 | > 100 µM | 21.7 | > 74.6 µM | 33 | > 67.1 µM | > 100 | > 100 µM | > 100 | > 100 µM | 44.3 | > 71.8 µM | 53.5 | > 67.5 µM | 36.5 | 69.1 µM | > 75.8 | > 100 µM
14 | CCCCCCCC(=O)[O][Hg][CH2]C1COC([CH2][Hg][O]C(=O)CCCCCCC)CO1 (stereo not given) | 1.91 | > 100 µM | 30.8 | 66.4 µM | 2.09 | > 100 µM | 14.2 | 28.6 µM | 4.22 | 14.8 µM | 19 | 36.5 µM | 17.5 | 37.4 µM | 16.1 | 29.5 µM | 2.91 | 19.5 µM | 15.2 | 28.6 µM
15 | COc1cccc(NC(=O)C(=O)C2C=CCS2(=O)=O)c1 (stereo not given) |  | > 100 µM |  | > 100 µM |  | > 100 µM |  | > 100 µM |  | > 100 µM |  | > 100 µM |  | > 100 µM |  | > 100 µM |  | > 100 µM |  | > 100 µM
16 | COCc1c(-c2ccc(NC(=O)Nc3cc(C(F)(F)F)ccc3F)c(F)c2)c2c(N)ncnn2c1CN1CCOCC1 | 1.95 | 7.96 µM | 1.71 | 7.62 µM | 1.18 | > 10 µM | 1.61 | 5.18 µM | 3.37 | > 10 µM | 1.56 | 6.54 µM | 0.283 | 2.64 µM | 2.93 | > 10 µM | 2.58 | > 10 µM | 2.56 | > 10 µM
17 | CCCCCC[C@H](C)NC(=O)c1ccc(Nc2nc3ccccc3c3occc23)cc1 | 3.68 | > 100 µM | 2.2 | 5.42 µM | 8.72 | > 100 µM | 2.41 | 6.08 µM | 3.11 | 19.7 µM | 2.62 | > 100 µM | 2.48 | 5.31 µM | 5.15 | > 100 µM | 3.57 | > 100 µM | 19 | > 100 µM
18 | N#CC1C(=O)NC(c2ccccc2[N+](=O)[O-])c2sc3c(F)cccc3c21 (stereo not given) | 21.6 | > 87.4 µM | 3.41 | 41.8 µM | 2.39 | 58.8 µM | 8.78 | 45 µM | 0.318 | 12.7 µM | 1.11 | 30.3 µM | 22 | 72.8 µM | 22.1 | > 100 µM | 0.366 | > 100 µM | 1.16 | 62.6 µM
19 | CCOC(=O)C(=O)Nc1ccccc1C(C)C |  | > 100 µM |  | > 100 µM |  | > 100 µM |  | > 100 µM |  | > 100 µM |  | > 100 µM |  | > 100 µM |  | > 100 µM |  | > 100 µM |  | > 100 µM
20 | Cc1ccc(OCC2OC(n3cnc4c(Br)nc(Br)nc43)CC2Oc2ccc(C)cc2)cc1 (stereo not given) | 1.8 | 3.44 µM and > 25.5 µM | 1.52 | 3.25 µM and 4.15 µM | 1.94 | 3.92 µM and > 23.8 µM | 6.1 | 16.7 µM and 15.4 µM | 3.77 | 14.3 µM and 19.1 µM | 2.22 | 5.28 µM and 25.9 µM | 0.466 | 10.2 µM and 15.6 µM | 11.8 | 22.9 µM and 17.8 µM | 3.02 | 10.1 µM and 12.3 µM | 1.61 | 3.99 µM and 4.82 µM
21 | CCN(CC)CCn1c2ccccc2c(=O)c2c(OC)ccc(OC)c21 |  | > 100 µM |  | > 100 µM |  | > 100 µM |  | > 100 µM |  | > 100 µM |  | > 100 µM |  | > 100 µM |  | > 100 µM |  | > 100 µM |  | > 100 µM
22 | CC1C2CC=CC(=O)[C@@]2(C)CCC12OCCO2 (stereo not given in full) |  | > 100 µM |  | > 100 µM |  | > 100 µM |  | > 100 µM |  | > 100 µM |  | > 100 µM |  | > 100 µM |  | > 100 µM |  | > 100 µM |  | > 100 µM
